Assay [1] relates to human epidermoid tumors (A431). Description: In vivo inhibition of the growth of human epidermoid tumors (A431) in mice. The arrangement: species or system human tumor in BALB/c nu/nu female mice.
Description: Representative compounds of this invention (listed below) were evaluated in an in vivo standard pharmacological test procedure which measured its ability to inhibit the growth of human epidermoid tumors. […] BALB/c nu/nu female mice (Charles River, Wilmington, Mass.) were used in this in vivo standard pharmacological test procedure. […] When tumors attained a mass of between 100 and 150 mg, the mice were randomized into treatment groups (day zero). Mice were treated IP once a day either on days 1, 5, and 9 or on days 1 through 10 post staging with doses of either 80, 40 or 20 mg/kg/dose of the compound to be evaluated in 0.2% Klucel. Control animals received no drug. Tumor mass was determined every 7 days [(length X width^2)/2] for 28 days post staging. Relative tumor growth (Mean tumor mass on days 7, 14, 21, and 28 divided by the mean tumor mass on day zero) is determined for each treatment group.
For assay [2], the target named is recombinant human MEK 1 (MAPKK) and recombinant human ERK2 (MAPK). Description: Mitogen Activated Protein Kinase (MAPK) Assay, coupled MEK/ERK. It is filed as biochemical. The conditions noted are these: separate entries = evaluated more than once.
Description: To evaluate inhibitors of the MAP (mitogen activated protein) kinase a two component coupled standard pharmacological test procedure, which measures phosphorylation of a serine/threonine residue in an appropriate sequence in the substrate in the presence and absence of a putative inhibitor, was used. Recombinant human MEK 1 (MAPKK) was first used to activate recombinant human ERK2 (MAPK) and the activated MAPK (ERK) was incubated with substrate (MBP peptide or MYC peptide) in the presence of ATP, Mg^+2 and radiolabeled ^33 P ATP. The phosphorylated peptide was captured on a P 81 phosphocellulose filter (paper filter or embedded in microtiter plate) washed and counted by scintillation methods.
The peptide substrates used in the assay are MBP, peptide substrate ([sequence]), or synthetic Myc substrate, ([sequence].cndot.5 TFA. The recombinant enzymes used were prepared as GST fusion proteins of human ERK 2 and human MEK 1. Inhibitor samples were prepared as 10× stocks in 10% DMSO and an appropriate aliquot was used to deliver either 10 ug/ml for a single point screening dose or 100, 10, 1, and 0.1 uM final concentration for a dose response curve. Final DMSO concentrations were less than or equal to 1%.
The reaction was run as follows in 50 mM Tris kinase buffer, pH 7.4 in a reaction volume of 50 ul. The appropriate volume of kinase buffer and inhibitor sample was added to the tube. Appropriate dilution of enzyme was delivered to give 2-5 ug recombinant MAPK (Erk) per tube. The inhibitor was incubated with MAPK (Erk) for min at 0 deg. […] Recombinant Mek (MAPKK) (0.5-2.5 ug) or fully activated Mek (0.05-0.1 units) was added to activate the Erk and incubated for 30 min at 30° C. […] Samples were incubated at 30° C. for 30 minutes and the reaction was stopped by adding 25 μl of ice cold 10% TCA After samples were chilled on ice for 30 min, 20 μl of sample was transferred onto P 81 phosphocellulose filter paper or appropriate MTP with embedded P 81 filter. Filter papers or MTP were washed 2 times with a large volume of 1% acetic acid, then 2 times with water. The filters or MTP were briefly air dried before addition of scintillant and samples were counted in the appropriate scintillation counter set up for reading ^33 P isotope.
The raw data was captured as cpm. Sample replicates were averaged and corrected for background count. Mean cpm data was tabulated by group and % inhibition by a test compound was calculated as (corrected cpm control-corrected. cpm sample/control)×100=% inhibition.
For assay [3], the target named is T1, Kinase insert Domain containing Receptor (KDR; the catalytic domain of the VEGF receptor) (Homo sapiens, UniProt P35968).
T1 construct: KDR; the catalytic domain of the VEGF receptor
As to the kind of experiment: Inhibition of Kinase insert Domain containing Receptor (KDR). Type of assay: biochemical.
Description: In this standard pharmacological test procedure, KDR protein is mixed, in the presence or absence of a inhibitor compound, with a substrate peptide to be phosphorylated (a copolymer of glutamic acid and tyrosine, E:Y::4:1) and other cofacters such as Mg^++ and sodium vanadate (a protein tyrosine phosphatase inhibitor) in an appropriate buffer to maintain pH (7.2). ATP and a radioactive tracer (either P^32 - or P^33 -labeled ATP) is then add to initiate phosphorylation. After incubation, the radioactive phosphate associated with the acid-insoluble fraction of the assay mixture is then qualified as reflection of substrate phosphorylation.

A further assay relates to SKBR3. As to the kind of experiment: Inhibition of cancer cell growth as measured by cell number. Type of assay: cell-based, human. The conditions noted are these: SKBR3, 48 hours, Table 8.
Assay [4] addresses T2, Epidermal Growth Factor Receptor Kinase (His-tagged cytoplasmic domain of EGFR) (Homo sapiens, UniProt P00533).
T2 construct: EGFR cDNA encoding amino acids 645-1186 preceded by Met-Ala-(His)6; made in house; host or cells: Sf9 insect cells, baculovirus vHcEGFR52
As to the kind of experiment: Inhibition of Epidermal Growth Factor Receptor Kinase (EGF-R) using recombinant enzyme. It is filed as biochemical. As to conditions: average of number of tests, RR-SRC peptide.
Description: Representative compounds of the invention were evaluated for their ability to inhibit the phosphorylation of the tyrosine residue of a peptide substrate catalyzed by the enzyme epidermal growth factor receptor kinase. […] The enzyme used in this assay is the His-tagged cytoplasmic domain of EGFR. A recombinant baculovirus (vHcEGFR52) was constructed containing the EGFR cDNA encoding amino acids 645-1186 preceded by Met-Ala-(His)6. Sf9 cells in 100 mm plates were infected at an moi of 10 pfu/cell and cells were harvested 48 h post infection. A cytoplasmic extract was prepared using 1% Triton X-100 and applied to Ni-NTA column. After washing the column with 20 mM imidazole, HcEGFR was eluted with 250 mM imidazole (in 50 mM NaHPO4, pH 8.0, 300 mM NaCl). […]
Compounds to be evaluated were made into 10 mg/mL stock solutions in 100% dimethylsulfoxide (DMSO). […]
For the enzyme reaction, 10 μL of each inhibitor (at various concentrations) were added to each well of a 96-well plate. […] The filter discs were washed 2× with 0.5% phosphoric acid and radioactivity was measured using a liquid scintillation counter.
The % inhibition of the test compound was determined for at least three different concentrations and the IC50 value was evaluated from the dose response curve. […]

Assay [5] concerns the target gastric (H^+ /K^+)-ATPase (Sus scrofa, UniProt P19156). As to conditions: Ife R. J., et al., J. Med. Chem., 35(18), 3413 (1992); cited from earlier work.
For another assay, the system named is HL60. As to the kind of experiment: Inhibition of cancer cell growth as measured by cell number. It is filed as cell-based, human. The conditions noted are these: HL60, 48 hours.
Setting [6] is: Table 10, 80 IP days 1, 5, 9, day 7.
Setting [7] is: Table 10, 80 IP days 1, 5, 9, day 14.
[8] abbreviates: Table 10, 80 IP days 1, 5, 9, day 21.
[9] abbreviates: Table 10, 80 IP days 1, 5, 9, day 28.
Where [10] appears, read: Table 10, 80 PO days 1-10, day 7.
[11] abbreviates: Table 10, 80 PO days 1-10, day 14.
[12] abbreviates: Table 10, 80 PO days 1-10, day 21.
Setting [13] is: Table 10, 80 PO days 1-10, day 28.
Where [14] appears, read: Table 11, 80 IP days 1, 5, 9, day 7.
Where [15] appears, read: Table 11, 80 IP days 1, 5, 9, day 14.
Where [16] appears, read: Table 11, 80 IP days 1, 5, 9, day 21.
Setting [17] is: Table 11, 80 IP days 1, 5, 9, day 28.
Where [18] appears, read: Table 11, 80 PO days 1-10, day 7.
Setting [19] is: Table 11, 80 PO days 1-10, day 14.
The mark [20] stands for this setting: Table 11, 80 PO days 1-10, day 21.
Setting [21] is: Table 11, 80 PO days 1-10, day 28.

The values below come from patent publication US6002008A, “Substituted 3-cyano quinolines” (American Cyanamid Company, priority 1998, dated 1999).

T1 sequence (P35968 834-1162 limits assumed): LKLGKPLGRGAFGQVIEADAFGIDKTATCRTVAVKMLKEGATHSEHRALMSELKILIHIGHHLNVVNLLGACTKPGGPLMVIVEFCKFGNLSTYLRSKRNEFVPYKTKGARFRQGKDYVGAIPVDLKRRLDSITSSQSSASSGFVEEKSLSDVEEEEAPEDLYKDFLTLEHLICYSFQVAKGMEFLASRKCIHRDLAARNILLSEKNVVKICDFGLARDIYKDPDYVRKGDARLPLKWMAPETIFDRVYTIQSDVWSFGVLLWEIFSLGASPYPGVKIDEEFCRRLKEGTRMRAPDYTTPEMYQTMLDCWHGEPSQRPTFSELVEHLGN
T2 sequence (P00533 669-1210): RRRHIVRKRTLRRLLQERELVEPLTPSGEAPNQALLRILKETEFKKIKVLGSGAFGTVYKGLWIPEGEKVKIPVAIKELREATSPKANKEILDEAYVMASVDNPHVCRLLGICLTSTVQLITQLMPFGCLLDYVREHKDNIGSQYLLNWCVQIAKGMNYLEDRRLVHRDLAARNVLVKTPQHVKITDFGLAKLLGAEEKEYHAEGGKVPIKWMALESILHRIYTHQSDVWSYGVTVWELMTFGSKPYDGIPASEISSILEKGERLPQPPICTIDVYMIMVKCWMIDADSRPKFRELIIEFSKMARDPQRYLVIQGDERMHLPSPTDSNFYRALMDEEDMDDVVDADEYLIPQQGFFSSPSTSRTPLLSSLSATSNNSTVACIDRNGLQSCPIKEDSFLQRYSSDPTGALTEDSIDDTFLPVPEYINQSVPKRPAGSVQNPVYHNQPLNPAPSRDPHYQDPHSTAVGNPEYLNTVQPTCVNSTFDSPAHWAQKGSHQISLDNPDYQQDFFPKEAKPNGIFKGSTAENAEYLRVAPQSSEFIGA
Chain of gastric (H^+ /K^+)-ATPase (P19156 2-1034 limits assumed): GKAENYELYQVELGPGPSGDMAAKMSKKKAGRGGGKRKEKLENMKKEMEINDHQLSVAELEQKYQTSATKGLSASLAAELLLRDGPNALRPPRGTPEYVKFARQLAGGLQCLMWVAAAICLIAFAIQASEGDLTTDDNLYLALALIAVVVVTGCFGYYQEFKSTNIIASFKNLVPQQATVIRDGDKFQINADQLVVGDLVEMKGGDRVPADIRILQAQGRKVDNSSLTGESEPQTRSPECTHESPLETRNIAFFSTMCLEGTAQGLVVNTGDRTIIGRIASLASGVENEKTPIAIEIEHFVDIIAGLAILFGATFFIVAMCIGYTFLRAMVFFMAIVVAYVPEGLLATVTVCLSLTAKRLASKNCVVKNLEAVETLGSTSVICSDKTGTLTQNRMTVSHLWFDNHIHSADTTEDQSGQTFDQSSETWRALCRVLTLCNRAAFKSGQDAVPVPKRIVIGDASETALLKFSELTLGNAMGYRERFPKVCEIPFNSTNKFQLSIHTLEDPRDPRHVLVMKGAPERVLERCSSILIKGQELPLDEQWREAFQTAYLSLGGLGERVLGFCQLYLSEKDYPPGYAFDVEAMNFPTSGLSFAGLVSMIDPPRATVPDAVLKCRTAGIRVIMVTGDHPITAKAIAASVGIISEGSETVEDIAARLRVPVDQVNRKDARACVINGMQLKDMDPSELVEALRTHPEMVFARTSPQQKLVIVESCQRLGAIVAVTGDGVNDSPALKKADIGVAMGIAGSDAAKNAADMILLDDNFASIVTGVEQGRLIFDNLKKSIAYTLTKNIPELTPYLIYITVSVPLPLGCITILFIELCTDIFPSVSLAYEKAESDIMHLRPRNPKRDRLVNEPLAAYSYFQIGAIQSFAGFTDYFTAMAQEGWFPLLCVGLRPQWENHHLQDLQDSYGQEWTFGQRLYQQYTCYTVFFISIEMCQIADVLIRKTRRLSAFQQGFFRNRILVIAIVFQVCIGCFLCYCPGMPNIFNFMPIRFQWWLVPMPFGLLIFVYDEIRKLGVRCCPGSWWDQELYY
Chain of gastric (H^+ /K^+)-ATPase (P18434 whole entry partner): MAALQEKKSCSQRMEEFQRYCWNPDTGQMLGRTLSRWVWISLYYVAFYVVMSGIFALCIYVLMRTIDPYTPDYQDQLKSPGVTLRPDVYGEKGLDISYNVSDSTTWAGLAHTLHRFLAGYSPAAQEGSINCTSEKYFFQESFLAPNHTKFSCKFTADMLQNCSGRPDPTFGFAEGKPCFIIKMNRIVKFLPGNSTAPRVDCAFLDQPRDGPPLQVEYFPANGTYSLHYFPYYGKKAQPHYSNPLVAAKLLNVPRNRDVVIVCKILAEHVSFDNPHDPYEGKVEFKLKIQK
Excerpt for HL60: (§1) The cell lines were chosen since they overexpressed epidermal growth factor receptor (EGFR) (i.e. A431) or HER2/neu (SKBR3), or had little to no expression of the these receptors (SW620, LOX, MCF7).
Excerpt for SKBR3: as §1

Consider `COc1cc2ncc(C#N)c(Nc3ccc(F)c(Cl)c3)c2cc1NC(=O)C=CCN1CCOCC1` [Example 205, 4-Morpholin-4-yl-but-2-enoic acid [4-(3-chloro-4-fluoro-phenylamino)-3-cyano-7-methoxy-quinolin-6-yl]-amide], for which the “% T/C” value in assay [1] (setting [6]) was 30%; in assay [1] (setting [7]) it was 25%; in assay [1] (setting [8]) it was 38%; in assay [1] (setting [9]), 61%; in assay [1] (setting [10]), 23%; in assay [1] (setting [11]), 19%. Also, the entries for the “% T/C” value in assay [1] (setting [12]) and in assay [1] (setting [13]) were 23% and 29%, respectively.
On to “4-(3-Bromophenylamino)-6,7-di-methoxymethyl-3-quinolinecarbonitrile [Example 325]”, for which the IC50 (in general, the concentration needed to halve the response being measured) in assay [2] was over 100 µM.
`CCOc1cc2ncc(C#N)c(Nc3cccc(Br)c3)c2cc1NC(=O)C=CCN(CC)CC` [Example 217, 4-Diethylamino-but-2-enoic acid [4-(3-bromo-phenylamino)-3-cyano-7-ethoxy-quinolin-6-yl]-amide]: the “% T/C” value is listed as 25% in assay [1] (setting [14]); 36% in assay [1] (setting [15]); 51% in assay [1] (setting [16]); 56% in assay [1] (setting [17]); 30% in assay [1] (setting [18]); 33% in assay [1] (setting [19]). For the same compound, the “% T/C” value in assay [1] (setting [20]) is reported as 43%; in assay [1] (setting [21]), 42%. For the same compound, in assay [3], the “KDR IC50” value amounted to 30 µg/mL.
As for `CCOc1cc2ncc(C#N)c(Nc3cccc(Br)c3)c2cc1NC(=O)C=CCN(C)C` [Example 216, 4-Dimethylamino-but-2-enoic acid [4-(3-bromo-phenylamino)-3-cyano-7-ethoxy-quinolin-6-yl]-amide], the “% T/C” value in assay [1] (setting [14]) is recorded as 14%; in assay [1] (setting [15]), 12%; in assay [1] (setting [16]) it was 17%; in assay [1] (setting [17]), 19%; in assay [1] (setting [18]), 6%; in assay [1] (setting [19]) it was 6%. Also, the figures for the “% T/C” value in assay [1] (setting [20]) and in assay [1] (setting [21]) were 12% and 21%, respectively. The “KDR IC50” value in assay [3] came to 30 µg/mL.
In the case of `COc1ccc2ncc(C#N)c(Nc3ccc(Cl)cc3F)c2c1` [Example 283, 4-(4-Chloro-2-fluoro-phenylamino)-6-methoxy-quinoline-3-carbonitrile], the “KDR IC50” value in assay [3] is 30 µg/mL.
Turning to `C=C(CN1CCOCC1)C(=O)Nc1ccc2ncc(C#N)c(Nc3cccc(Br)c3)c2c1` [Example 171, N-{4-[(3-Bromophenyl)amino]-3-cyano-6-quinolinyl}-2-morpholin-4-ylmethyl-2-propenamide], the half-inhibitory concentration (IC50) in assay [2] was determined as 100 µM.
Turning to `COc1cc2ncc(C#N)c(Nc3ccc(F)c(Cl)c3)c2cc1NC(=O)C=CCN(C)C` [Example 203, 4-Dimethylamino-but-2-enoic acid [4-(3-chloro-4-fluoro-phenylamino)-3-cyano-7-methoxy-quinolin-6-yl]-amide], the “% T/C” value amounted to 20% in assay [1] (setting [6]); 12% in assay [1] (setting [7]); 14% in assay [1] (setting [8]); 16% in assay [1] (setting [9]); 15% in assay [1] (setting [10]); 8% in assay [1] (setting [11]). The “% T/C” value in assay [1] (setting [12]) turned out to be 12%; in assay [1] (setting [13]), 17%. Besides, the “Inhibition of Cancer Cell Growth as Measured by Cell Number (IC50)” value in the assay with SKBR3 amounted to 0.1 µg/mL.
`COc1cc2ncc(C#N)c(Nc3ccc(F)c(Br)c3)c2cc1NC(=O)C=CCN(C)C` [Example 208, 4-Dimethylamino-but-2-enoic acid [4-(3-bromo-4-fluoro-phenylamino)-3-cyano-7-methoxy-quinolin-6-yl]-amide]: the “% T/C” value in assay [1] (setting [14]) was 14%; in assay [1] (setting [15]) it was 15%; in assay [1] (setting [16]), 26%; in assay [1] (setting [17]), 32%; in assay [1] (setting [18]) it was 6%; in assay [1] (setting [19]), 6%. Besides, the “% T/C” value is recorded as 8% in assay [1] (setting [20]) and 10% in assay [1] (setting [21]).
Consider `COCCOc1cc2ncc(C#N)c(Nc3cccc(Br)c3)c2cc1OCCOC` [Example 311, 4-[(3-Bromophenyl)amino]-6,7-bis(2-methoxyethoxy)-3-quinolinecarbonitrile], for which the IC50 in assay [2] was 70 µM.
Regarding `CN(C)CC=CC(=O)Nc1ccc2ncc(C#N)c(Nc3cccc(Br)c3)c2c1` [Example 99, 4-Dimethylamino-but-2-enoic acid [4-(3-bromo-phenylamino)-3-cyano-quinolin-6-yl]-amide], the IC50 in assay [4] turned out to be 0.03 µM.
In the case of `C=CC(=O)Nc1ccc2ncc(C#N)c(Nc3cccc(C#N)c3)c2c1` [Example 160, N-{3-Cyano-4-[(3-cyanophenyl)amino]-6-quinolinyl}-2-propenamide], the “KDR IC50” value in assay [3] is 30 µg/mL.
`CCOc1cc2[nH]cc(C#N)c(=O)c2cc1OCC` [Example 252, 1,4-Dihydroquinoline-6,7-diethoxy-4-oxo-3-carbonitrile]: the IC50 in assay [2] was 100 µM.
On to `CCN(CC)CC=CC(=O)Nc1cc2c(Nc3ccc(F)c(Cl)c3)c(C#N)cnc2cc1OC` [Example 204, 4-Diethylamino-but-2-enoic acid [4-(3-chloro-4-fluoro-phenylamino)-3-cyano-7-methoxy-quinolin-6-yl]-amide], for which the “% T/C” value is 45% in assay [1] (setting [6]); 42% in assay [1] (setting [7]); 55% in assay [1] (setting [8]); 49% in assay [1] (setting [9]); 25% in assay [1] (setting [10]); 18% in assay [1] (setting [11]). For the same compound, the “% T/C” value in assay [1] (setting [12]) was 43%; in assay [1] (setting [13]), 51%.
`COc1cc2ncc(C#N)c(Nc3cccc(C(C)=O)c3)c2cc1OC` [Example 324, 4(3-acetylphenylamino)-6,7-dimethoxy-3-quinolinecarbonitrile]: the concentration for half-maximal inhibition (IC50) in assay [2] was found to be 100 µM.
With `CCCCOc1cc2ncc(C#N)c(Nc3cccc(Br)c3)c2cc1OCCCC` [Example 305, 4(3-Bromophenylamino)-6,7-di-n-butoxy-3-quinolinecarbonitrile], the “KDR IC50” value in assay [3] was determined as 30 µg/mL.
For the compound `Cc1ccccc1Nc1c(C#N)cnc2ccccc12`, the “gastric (H+/K+)-ATPase inhibitory activity” value in assay [5] is “inhibitory activity at high concentrations”.
Turning to `C=CC(=O)Nc1cc(CN(C)C)c2ncc(C#N)c(Nc3cccc(Br)c3)c2c1` [Example 111, N-{4-[(3-Bromophenyl)amino]-3-cyano-8-dimethylaminomethyl-6-quinolinyl}-2-propenamide], the IC50 in assay [2] stood at 100 µM.
For `COc1ccc2ncc(C#N)c(Nc3ccc(C)c(O)c3)c2c1` [Example 284, 4-(3-Hydroxy-4-methyl-phenylamino)-6-methoxy-quinoline-3-carbonitrile], the “KDR IC50” value in assay [3] worked out at 30 µg/mL.
Take `CCN(CC)CC=CC(=O)Nc1ccc2ncc(C#N)c(Nc3cccc(Br)c3)c2c1` [Example 100, 4-Diethylamino-but-2-enoic acid [4-(3-bromo-phenylamino)-3-cyano-quinolin-6-yl]-amide]: in assay [4], the 50% inhibitory concentration (IC50) worked out at 0.1 µM.
Take `COc1ccc(OC)c2c(Nc3ccc(Cl)cc3F)c(C#N)cnc12` [Example 238, 4-(4-Chloro-2-fluoro-phenylamino)-5.8-dimethoxyquinoline-3-carbonitrile]: in assay [2], the IC50 is over 100 µM.
In the case of `CCN(CC)CC=CC(=O)Nc1cc2c(Nc3ccc(F)c(Br)c3)c(C#N)cnc2cc1OC` [Example 209, 4Diethylamino-but-2-enoic acid [4(3-bromo-4-fluoro-phenylamino)-3-cyano-7-methoxy-quinolin-6-yl]-amide], in assay [3], the “KDR IC50” value worked out at 30 µg/mL.
The same measure, in the same setting: under `N#Cc1cnc2cc(O)ccc2c1Nc1ccc(Cl)cc1F` [Example 308, 4-(4-Chloro-2-fluorophenylamino)-7-hydroxy-3-quinolinecarbonitrile] stands 30 µg/mL.
On the same count and under the same terms, the result for `COc1ccc2c(Nc3ccc(Cl)cc3F)c(C#N)cnc2c1` [Example 307, 4-(4-Chloro-2-fluorophenylamino)-7-methoxy-3-quinolinecarbonitrile] reads 30 µg/mL.
With `COc1cc2ncc(C#N)c(Nc3cccc(C#N)c3)c2cc1OC` [Example 45, 4-[(3-Cyanophenyl)amino]-6,7-dimethoxy-3-quinolinecarbonitrile], in the assay on HL60, the “Inhibition of Cancer Cell Growth as Measured by Cell Number (IC50)” value was over 1.00 µg/mL.
